Results from ChEMBL document CHEMBL3425436, “Assessing the oral bioavailability of difluorosialic acid prodrugs, potent viral neuraminidase inhibitors, using a snapshot PK screening assay” (Bioorg Med Chem Lett, 2015).

Columns and labels:
[1] = tested on: Mus musculus; assay: Total plasma concentration in CD1 mouse assessed as (2R,3R,4R,5R,6R)-5-acetamido-4-amino-2,3-difluoro-6-((1R,2R)-1,2,3-trihydroxypropyl)tetrahydro-2H-pyran-2-carboxylic acid at 30 mg/kg, po measured at 60 mins by reversed-phase UPLC/MS analysis; type: ADME, organism-based; parameters: dose 30 mg/kg, route oral; conditions: in vivo, 1 h
[2] = tested on: Mus musculus; assay: Total plasma concentration in CD1 mouse assessed as (2R,3R,4R,5R,6R)-5-acetamido-4-amino-2,3-difluoro-6-((1R,2R)-1,2,3-trihydroxypropyl)tetrahydro-2H-pyran-2-carboxylic acid at 30 mg/kg, po measured at 20 mins by reversed-phase UPLC/MS analysis; type: ADME, organism-based; parameters: dose 30 mg/kg, route oral; conditions: in vivo

Compound	concentration [1]	concentration [2]
COC(=O)[C@]1(F)O[C@@H]([C@H](O)[C@H]2COC3(CCCCC3)O2)[C@H](NC(C)=O)[C@@H](N)[C@H]1F	390 nM	
CC(=O)N[C@@H]1[C@@H](N)[C@@H](F)[C@](F)(C(=O)NC2CCCCC2)O[C@H]1[C@H](O)[C@H](O)CO	2150 nM	1140 nM
CC(=O)N[C@@H]1[C@@H](N)[C@@H](F)[C@](F)(C(=O)NCc2ccccc2F)O[C@H]1[C@H](O)[C@H](O)CO	840 nM	660 nM
CC(=O)N[C@@H]1[C@@H](N)[C@@H](F)[C@](F)(C(=O)NCc2cccc(F)c2)O[C@H]1[C@H](O)[C@H](O)CO	810 nM	310 nM
CCOC(=O)[C@]1(F)O[C@@H]([C@H](O)[C@H](O)CO)[C@H](NC(C)=O)[C@@H](N)[C@H]1F	3580 nM	2070 nM
CC(=O)N[C@@H]1[C@@H](N)[C@@H](F)[C@](F)(C(=O)OC2CCCC2)O[C@H]1[C@H](O)[C@H](O)CO	2880 nM	1030 nM
CCCCCCCCOC(=O)[C@]1(F)O[C@@H]([C@H](O)[C@H](O)CO)[C@H](NC(C)=O)[C@@H](N)[C@H]1F	7110 nM	3230 nM
CCCCCCCCCCCCOC(=O)[C@]1(F)O[C@@H]([C@H](O)[C@H](O)CO)[C@H](NC(C)=O)[C@@H](N)[C@H]1F	2920 nM	440 nM
CC(=O)N[C@@H]1[C@@H](N)[C@@H](F)[C@](F)(C(=O)OCCCCC(F)(F)F)O[C@H]1[C@H](O)[C@H](O)CO	4020 nM	2540 nM
CC(=O)N[C@@H]1[C@@H](N)[C@@H](F)[C@](F)(C(=O)OCCCOC(=O)C(C)(C)C)O[C@H]1[C@H](O)[C@H](O)CO	3360 nM	1300 nM
CC(=O)N[C@@H]1[C@@H](N)[C@@H](F)[C@](F)(C(=O)OCCCCCOC(=O)C(C)(C)C)O[C@H]1[C@H](O)[C@H](O)CO	3770 nM	1870 nM
CC(=O)N[C@@H]1[C@@H](N)[C@@H](F)[C@](F)(C(=O)OCCC(=O)N(C)C)O[C@H]1[C@H](O)[C@H](O)CO	3750 nM	1400 nM
CC(=O)N[C@@H]1[C@@H](N)[C@@H](F)[C@](F)(C(=O)OCCCOC(=O)c2ccc3ccccc3c2O)O[C@H]1[C@H](O)[C@H](O)CO	300 nM	250 nM
CC(=O)N[C@@H]1[C@@H](N)[C@@H](F)[C@](F)(C(=O)OCCCCCOC(=O)c2ccc3ccccc3c2O)O[C@H]1[C@H](O)[C@H](O)CO	800 nM	290 nM
CC(=O)N[C@@H]1[C@@H](N)[C@@H](F)[C@](F)(C(N)=O)O[C@H]1[C@H](O)[C@H](O)CO	3330 nM	710 nM
CC(=O)N[C@@H]1[C@@H](N)[C@@H](F)[C@](F)(C(=O)NCCO)O[C@H]1[C@H](O)[C@H](O)CO	1390 nM	690 nM
CC(=O)N[C@@H]1[C@@H](N)[C@@H](F)[C@](F)(C(=O)NCc2ccccc2)O[C@H]1[C@H](O)[C@H](O)CO	590 nM	270 nM
COC(=O)CNC(=O)[C@]1(F)O[C@@H]([C@H](O)[C@H](O)CO)[C@H](NC(C)=O)[C@@H](N)[C@H]1F	4390 nM	2550 nM
CCC1(CC)OC[C@H]([C@@H](O)[C@@H]2O[C@@](F)(C(=O)OC)[C@H](F)[C@H](N)[C@H]2NC(C)=O)O1	2250 nM	1950 nM
COC(=O)[C@]1(F)O[C@@H]([C@H](O)[C@H]2COC(C(C)C)(C(C)C)O2)[C@H](NC(C)=O)[C@@H](N)[C@H]1F	730 nM	620 nM
COC(=O)[C@]1(F)O[C@@H]([C@H](O)[C@H]2COC3(CCCC3)O2)[C@H](NC(C)=O)[C@@H](N)[C@H]1F	1690 nM	490 nM
COC(=O)OC[C@@H](O)[C@@H](O)[C@@H]1O[C@@](F)(C(=O)OC)[C@H](F)[C@H](N)[C@H]1NC(C)=O		90 nM
